One assay concerns the target wild type BRAF kinase (Homo sapiens (Human), UniProt P15056). Conditions: read-out: BRAF WT Kd, class symbols.
The test system of assay [1] is panel of 290 distinct kinases (321 in the larger panel), excluding mutant variants. Conditions: kinase selectivity score, class symbols.
In the next assay the target is mutant BRAF kinase (Homo sapiens (Human), UniProt P15056, V600E). Conditions: read-out: BRAF V600E Kd, class symbols.
The next assay deals with RAF kinases (Homo sapiens (Human), UniProt P04049). To be noted: read-out: RAF1 Kd, class symbols.
Where [2] appears, read: value marked * (larger kinase panel).

Counter-ions that a name gives are not always drawn. Like-named read-outs stand apart in the source and are kept apart here.

Sequence of RAF kinases (P04049 whole entry): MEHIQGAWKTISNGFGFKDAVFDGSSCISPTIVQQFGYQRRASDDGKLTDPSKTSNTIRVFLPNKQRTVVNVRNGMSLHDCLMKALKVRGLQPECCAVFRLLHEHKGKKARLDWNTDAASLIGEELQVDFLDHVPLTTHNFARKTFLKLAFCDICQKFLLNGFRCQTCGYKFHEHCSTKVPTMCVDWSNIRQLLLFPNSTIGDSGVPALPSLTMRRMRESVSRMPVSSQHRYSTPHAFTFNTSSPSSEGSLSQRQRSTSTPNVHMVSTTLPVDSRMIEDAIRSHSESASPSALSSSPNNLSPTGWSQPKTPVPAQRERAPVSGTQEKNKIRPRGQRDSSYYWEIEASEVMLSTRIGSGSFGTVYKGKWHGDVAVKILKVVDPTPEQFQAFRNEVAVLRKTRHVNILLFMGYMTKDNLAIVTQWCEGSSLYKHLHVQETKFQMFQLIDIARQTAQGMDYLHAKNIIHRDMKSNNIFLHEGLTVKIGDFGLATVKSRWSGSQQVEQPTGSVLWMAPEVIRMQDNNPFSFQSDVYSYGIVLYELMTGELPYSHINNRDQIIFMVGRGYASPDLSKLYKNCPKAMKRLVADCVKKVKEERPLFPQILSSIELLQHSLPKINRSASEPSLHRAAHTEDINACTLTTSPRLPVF
Sequence of mutant BRAF kinase (P15056 whole entry V600E): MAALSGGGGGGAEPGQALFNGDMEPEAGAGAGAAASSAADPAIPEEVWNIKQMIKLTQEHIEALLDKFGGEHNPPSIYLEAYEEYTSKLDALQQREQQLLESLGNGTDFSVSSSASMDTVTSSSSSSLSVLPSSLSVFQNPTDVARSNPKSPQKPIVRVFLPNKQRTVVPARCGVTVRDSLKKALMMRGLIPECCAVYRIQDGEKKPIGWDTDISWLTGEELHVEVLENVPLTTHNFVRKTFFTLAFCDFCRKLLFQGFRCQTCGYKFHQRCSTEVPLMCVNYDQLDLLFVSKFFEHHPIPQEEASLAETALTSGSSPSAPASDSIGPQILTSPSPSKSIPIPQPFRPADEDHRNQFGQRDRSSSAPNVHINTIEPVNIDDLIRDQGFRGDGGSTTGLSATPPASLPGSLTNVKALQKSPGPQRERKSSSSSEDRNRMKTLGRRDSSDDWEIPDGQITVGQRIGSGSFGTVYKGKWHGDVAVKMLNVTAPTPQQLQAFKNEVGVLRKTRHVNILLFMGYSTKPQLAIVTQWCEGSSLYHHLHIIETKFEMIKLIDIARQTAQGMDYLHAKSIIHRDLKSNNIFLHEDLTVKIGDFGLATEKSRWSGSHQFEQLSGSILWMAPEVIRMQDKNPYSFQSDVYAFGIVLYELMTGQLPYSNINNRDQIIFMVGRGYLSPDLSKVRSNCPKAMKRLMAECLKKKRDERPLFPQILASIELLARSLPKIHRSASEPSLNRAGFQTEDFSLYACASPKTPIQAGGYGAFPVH
Sequence of wild type BRAF kinase (P15056 whole entry): as the sequence (P15056 whole entry V600E) above, with E600V counted along it
Method for RAF kinases: The liganded beads were blocked with excess biotin and washed with blocking buffer (SeaBlock (Pierce), 1% BSA, 0.05% Tween 20, 1 mM DTT) to remove unbound ligand and to reduce non-specific binding. […] Test compounds were prepared as 100× stocks in DMSO and rapidly diluted into the aqueous environment. DMSO was added to control assays lacking a test compound. Primary screen interactions were performed in polypropylene 384-well plates in a final volume of 34 μL, while Kd determinations were performed in polystyrene 96-well plates in a final volume of 135 μL. […] The kinase concentration in the eluates was measured by quantitative PCR. Each kinase was tested individually against each compound. KdS were determined using eleven serial threefold dilutions. A selectivity score, which is a quantitative measure of selectivity of a compound against a panel of enzymes, may be calculated for a compound by dividing the number of enzymes for which a compound meets a set criteria, (for example, a binding constant of 100 nM or less), by the total number of enzymes tested. […] (Note, for those compounds tested in a larger kinase panel, as indicated by an asterisk (*) next to the S35 score, the divisor is 321 (i.e. the larger panel contains 321 distinct kinases, excluding mutant variants.)).

With `COc1cc2ncnc(Oc3cccc(NC(=O)Nc4cc(C(C)(C)C)on4)c3)c2cc1OC` [Ex 1, 1-(5-tert-butylisoxazol-3-yl)-3-(3-(6,7-dimethoxyquinazolin-4-yloxy)phenyl)urea], the values for the equilibrium dissociation constant (Kd) on wild type BRAF kinase and at mutant BRAF kinase were over 1 µM and under 0.25 µM, respectively. Further, the S35 entry in assay [1] (290 distinct kinases) is listed as “C (0.20 < C ≦ 0.40)”.
For `CCOc1cc2ncnc(Oc3cccc(NC(=O)Nc4cc(C(C)(C)C)on4)c3)c2cc1OC` [Ex 6, 1-(5-tert-butylisoxazol-3-yl)-3-[3-(7-ethoxy-6-methoxyquinazolin-4-yloxy)phenyl]urea hydrochloride], the Kd (as a rule, the equilibrium constant for the complex coming apart) on wild type BRAF kinase was over 1 µM; on mutant BRAF kinase it was under 0.25 µM. In addition, the S35 entry in assay [1] (290 distinct kinases) was “D (D > 0.40)”.
With `COc1cc2ncnc(Oc3cc(NC(=O)Nc4cc(C(C)(C)C)on4)ccc3F)c2cc1OC` [Ex 9, 1-(5-tert-butylisoxazol-3-yl)-3-(3-(6,7-dimethoxyquinazolin-4-yloxy)-4-fluorophenyl)urea], the Kd at wild type BRAF kinase is over 1 µM; on mutant BRAF kinase it was under 0.25 µM. Also, the S35 result in assay [1] (290 distinct kinases) is given as “D (D > 0.40)”.
Consider `CCOc1cc2c(Oc3cccc(NC(=O)Nc4cc(C(C)(C)C)on4)c3)ncnc2cc1OC` [Ex 11, 1-(5-tert-butylisoxazol-3-yl)-3-(3-(6-ethoxy-7-methoxyquinazolin-4-yloxy)phenyl)urea], for which the values for the Kd on wild type BRAF kinase and on mutant BRAF kinase were over 1 µM and under 0.25 µM, respectively. The S35 entry in assay [1] (290 distinct kinases) is “C (0.20 < C ≦ 0.40)”.
With `COc1cc2c(Oc3cccc(NC(=O)Nc4cc(C(C)(C)C)on4)c3)ncnc2cc1OCCCN1CCN(CCO)CC1` [Ex 30, 1-(5-tert-butylisoxazol-3-yl)-3-(3-(7-(3-(4-(2-hydroxyethyl)piperazin-1-yl)propoxy)-6-methoxyquinazolin-4-yloxy)phenyl)urea], the Kd at wild type BRAF kinase and on mutant BRAF kinase was under 0.25 µM each time. For the same compound, the S35 entry in assay [1] (290 distinct kinases) was “D (D > 0.40)”.
As to `COc1ccc2ncnc(Sc3cccc(NC(=O)Nc4cc(C(C)(C)C)on4)c3)c2c1` [Ex 49, 1-(5-tert-butylisoxazol-3-yl)-3-(3-(6-methoxyquinazolin-4-ylthio)phenyl)urea], the dissociation constant (Kd) at wild type BRAF kinase is over 1 µM. The S35 result in assay [1] (290 distinct kinases) is listed as “C (0.20 < C ≦ 0.40)”.
Taken in the same sequence, the figures for `COc1cc2c(Sc3cccc(NC(=O)Nc4cc(C(C)(C)C)on4)c3)ncnc2cc1OCCN1CCC(CO)CC1` [Ex 86, 1-(5-tert-butylisoxazol-3-yl)-3-(3-(7-(2-(4-(hydroxymethyl)piperidin-1-yl)ethoxy)-6-methoxyquinazolin-4-ylthio)phenyl)urea] were over 1 µM and “C (0.20 < C ≦ 0.40)”.
As to `COCCOc1ccc2ncnc(Sc3cccc(NC(=O)Nc4cc(C(C)(C)C)on4)c3)c2c1` [Ex 87, 1-(5-tert-butylisoxazol-3-yl)-3-(3-(6-(2-methoxyethoxy)quinazolin-4-ylthio)phenyl)urea], the equilibrium dissociation constant (Kd) at wild type BRAF kinase is over 1 µM. In addition, the S35 result in assay [1] (290 distinct kinases) is reported as “C (0.20 < C ≦ 0.40)”.
With `COc1cc(OC2CCOCC2)c2c(Oc3cccc(NC(=O)Nc4cc(C(C)(C)C)on4)c3)ncnc2c1` [Ex 94, 1-(5-tert-butylisoxazol-3-yl)-3-{3-[7-methoxy-5-(tetrahydro-2H-pyran-4-yloxy)quinazolin-4-yloxy]phenyl}urea], the Kd at wild type BRAF kinase was over 1 µM. In addition, the S35 entry in assay [1] (290 distinct kinases) is “C (0.20 < C ≦ 0.40)”.
As to `COc1cc2ncnc(Oc3cccc(NC(=O)Nc4cc(C5CCOCC5)no4)c3)c2cc1OC` [Ex 123, 1-(3-(6,7-dimethoxyquinazolin-4-yloxy)phenyl)-3-(3-(tetrahydro-2H-pyran-4-yl)isoxazol-5-yl)urea], the Kd on wild type BRAF kinase is over 1 µM. For the same compound, in assay [1] (290 distinct kinases), the S35 result is “B (0.10 < B ≦ 0.20)”.
Regarding `COCCOc1cc(NC(=O)Nc2cccc(Oc3ncnc4cc(OC)c(OC)cc34)c2)cc(C(F)(F)F)c1` [Ex 129, 1-(3-(6,7-dimethoxyquinazolin-4-yloxy)phenyl)-3-(3-(2-methoxyethoxy)-5-(trifluoromethyl)phenyl)urea], the equilibrium dissociation constant (Kd) at wild type BRAF kinase is over 1 µM. For the same compound, the S35 result in assay [1] (290 distinct kinases) is “B (0.10 < B ≦ 0.20)”.
Turning to `COc1cc2ncnc(Oc3cccc(NC(=O)Nc4ccc(OC)c(C(F)(F)F)c4)c3)c2cc1OC` [Ex 138, 1-(3-(6,7-dimethoxyquinazolin-4-yloxy)phenyl)-3-(4-methoxy-3-(trifluoromethyl)phenyl)urea], the Kd on RAF kinases and at mutant BRAF kinase was under 0.25 µM each time. The S35 result in assay [1] (290 distinct kinases) was “B (0.10 < B ≦ 0.20)”.
Regarding `COc1cc2ncnc(Oc3cccc(NC(=O)Nc4cc(Cl)cc(C(F)(F)F)c4)c3)c2cc1OC` [Ex 140, 1-(3-chloro-5-(trifluoromethyl)phenyl)-3-(3-(6,7-dimethoxyquinazolin-4-yloxy)phenyl)urea], on wild type BRAF kinase, the Kd was over 1 µM. In assay [1] (290 distinct kinases), the S35 entry is listed as “B (0.10 < B ≦ 0.20)”.
With `COc1cc2ncnc(Oc3cccc(NC(=O)Nc4cc(C(F)(F)F)ccc4Cl)c3)c2cc1OC` [Ex 142, 1-(2-chloro-5-(trifluoromethyl)phenyl)-3-(3-(6,7-dimethoxyquinazolin-4-yloxy)phenyl)urea], the Kd at wild type BRAF kinase is over 1 µM. For the same compound, the S35 result in assay [1] (290 distinct kinases) was “B (0.10 < B ≦ 0.20)”.
On to `COc1cc2ncnc(Oc3cccc(NC(=O)Nc4nccc(C(F)(F)F)n4)c3)c2cc1OC` [Ex 143, 1-(3-(6,7-dimethoxyquinazolin-4-yloxy)phenyl)-3-(4-(trifluoromethyl)pyrimidin-2-yl)urea], for which the Kd at wild type BRAF kinase is over 1 µM. The S35 entry in assay [1] (290 distinct kinases) is “A (A ≦ 0.10)”.
In the case of `COc1cc2ncnc(Oc3cccc(NC(=O)Nc4cccc(C(C)C)c4)c3)c2cc1OC` [Ex 144, 1-(3-(6,7-dimethoxyquinazolin-4-yloxy)phenyl)-3-(3-isopropylphenyl)urea], the Kd at RAF kinases and at mutant BRAF kinase was under 0.25 µM each time. For the same compound, in assay [1] (setting [2]), the S35 entry is “C* (0.20 < C ≦ 0.40)”.
Regarding `COCCOc1cc(NC(=O)Nc2cccc(Oc3ncnc4cc(OC)c(OC)cc34)c2)ccc1C(F)(F)F` [Ex 147, 1-(3-(6,7-dimethoxyquinazolin-4-yloxy)phenyl)-3-(3-(2-methoxyethoxy)-4-(trifluoromethyl)phenyl)urea], the equilibrium dissociation constant (Kd) at wild type BRAF kinase is over 1 µM. Moreover, in assay [1] (setting [2]), the S35 result is “B* (0.10 < B ≦ 0.20)”.
As to `COc1cc2ncnc(Oc3cccc(NC(=O)Nc4cc(C(C)(CF)CF)on4)c3)c2cc1OC` [Ex 162, 1-[5-(1,3-difluoro-2-methylpropan-2-yl)isoxazol-3-yl]-3-[3-(6,7-dimethoxyquinazolin-4-yloxy)phenyl]urea], the Kd at RAF kinases and at mutant BRAF kinase was under 0.25 µM each time. The S35 result in assay [1] (setting [2]) is given as “C* (0.20 < C ≦ 0.40)”.
In the case of `COc1cc2ncnc(Oc3cccc(NC(=O)Nc4cc(C5CCCC5)no4)c3)c2cc1OC` [Ex 163, 1-(3-cyclopentylisoxazol-5-yl)-3-(3-(6,7-dimethoxyquinazolin-4-yloxy)phenyl)urea], the Kd at wild type BRAF kinase is over 1 µM. The S35 entry in assay [1] (setting [2]) is listed as “C* (0.20 < C ≦ 0.40)”.
With `COc1cc2ncnc(Sc3cccc(NC(=O)Nc4ccc(C(C)(C)C)cc4)c3)c2cc1OC` [Ex 174, 1-(4-tert-butylphenyl)-3-(3-(6,7-dimethoxyquinazolin-4-ylthio)phenyl)urea], the Kd on wild type BRAF kinase was over 1 µM. In addition, in assay [1] (290 distinct kinases), the S35 entry is reported as “C (0.20 < C ≦ 0.40)”.
For `COc1cc2ncnc(Oc3cccc(NC(=O)Nc4ccc(OC(F)(F)F)cc4)c3)c2cc1OC` [Ex 177, 1-(3-(6,7-dimethoxyquinazolin-4-yloxy)phenyl)-3-(4-(trifluoromethoxy)phenyl)urea], the Kd on RAF kinases and at mutant BRAF kinase was under 0.25 µM throughout. Besides, the S35 result in assay [1] (290 distinct kinases) is listed as “C (0.20 < C ≦ 0.40)”.
Regarding `COc1cc2ncnc(Oc3cccc(NC(=O)Nc4ccc(C(F)(F)F)cc4)c3)c2cc1OC` [Ex 183, 1-(3-(6,7-dimethoxyquinazolin-4-yloxy)phenyl)-3-(4-(trifluoromethyl)phenyl)urea], the equilibrium dissociation constant (Kd) on RAF kinases and at mutant BRAF kinase was under 0.25 µM throughout. Further, the S35 result in assay [1] (setting [2]) is given as “C* (0.20 < C ≦ 0.40)”.
In the case of `COc1cc2ncnc(Sc3cccc(NC(=O)Nc4cccc(C(F)(F)F)c4)c3)c2cc1OC` [Ex 185, 1-(3-(6,7-dimethoxyquinazolin-4-ylthio)phenyl)-3-(3-(trifluoromethyl)phenyl)urea], the Kd at RAF kinases and at mutant BRAF kinase was under 0.25 µM throughout. Further, the S35 result in assay [1] (setting [2]) was “C* (0.20 < C ≦ 0.40)”.
On to `COc1cc2ncnc(Sc3cccc(NC(=O)Nc4cc(C(C)(C)F)no4)c3)c2cc1OC` [Ex 187, 1-(3-(6,7-dimethoxyquinazolin-4-ylthio)phenyl)-3-(3-(2-fluoropropan-2-yl)isoxazol-5-yl)urea], for which the dissociation constant Kd at RAF kinases and on mutant BRAF kinase was under 0.25 µM throughout. Also, the S35 result in assay [1] (setting [2]) is listed as “C* (0.20 < C ≦ 0.40)”.
In the case of `COc1cc2ncnc(Sc3cccc(NC(=O)Nc4ccc(C(F)(F)F)c(F)c4)c3)c2cc1OC` [Ex 188, 1-(3-(6,7-dimethoxyquinazolin-4-ylthio)phenyl)-3-(3-fluoro-4-(trifluoromethyl)phenyl)urea], the dissociation constant Kd at wild type BRAF kinase was over 1 µM. Also, the S35 entry in assay [1] (setting [2]) is listed as “B* (0.10 < B ≦ 0.20)”.
On the same counts, the results for `COc1cc2ncnc(Sc3cccc(NC(=O)Nc4cc(CN5CCOCC5)cc(C(F)(F)F)c4)c3)c2cc1OC` [Ex 189, 1-(3-(6,7-dimethoxyquinazolin-4-ylthio)phenyl)-3-(3-(morpholinomethyl)-5-(trifluoromethyl)phenyl)urea] are over 1 µM and “C* (0.20 < C ≦ 0.40)”.
With `COc1cc2ncnc(Sc3cccc(NC(=O)Nc4cc(C(C)(CF)CF)on4)c3)c2cc1OC` [Ex 191, 1-[5-(1,3-difluoro-2-methylpropan-2-yl)isoxazol-3-yl]-3-[3-(6,7-dimethoxyquinazolin-4-ylthio)phenyl]urea], the Kd at RAF kinases and on mutant BRAF kinase was under 0.25 µM each time. In addition, the S35 result in assay [1] (setting [2]) is “C* (0.20 < C ≦ 0.40)”.
Turning to `COc1cc2ncnc(Sc3cccc(NC(=O)Nc4cc(C5CCCC5)on4)c3)c2cc1OC` [Ex 201, 1-(5-Cyclopentylisoxazol-3-yl)-3-(3-(6,7-dimethoxyquinazolin-4-ylthio)phenyl)urea], the equilibrium dissociation constant (Kd) at RAF kinases and on mutant BRAF kinase was under 0.25 µM each time. The S35 entry in assay [1] (setting [2]) was “C* (0.20 < C ≦ 0.40)”.
